Measured values taken from the SangsterLogP compilation.

Settings: pH 7.4

Row | Structure (SMILES) | logD
1 | N#Cc1cnc(N2CCN(C(=O)[C@@H]3CCCC[C@H]3C(=O)NC3(C#N)CC3)CC2)s1 | 1.2
2 | Cc1cccc2c3c([nH]c12)CCN(C(=O)[C@@H]1CCCC[C@H]1C(=O)NC1(C#N)CC1)C3 | 2.99
3 | CC(C)Oc1cc(OCCN2CCOCC2)cc2ncnc(Nc3c(Cl)ccc4c3OCO4)c12 | 3.68
4 | CC(C)(C#N)c1cnc(N2CCN(C(=O)[C@@H]3CCCC[C@H]3C(=O)NC3(C#N)CC3)CC2)s1 | 1.9
5 | Cc1ncc(-c2nc(Nc3ccc(N4CCOCC4)cc3)ncc2F)n1C(C)C | 3.01
6 | N#CC1(NC(=O)[C@@H]2CCCC[C@H]2C(=O)N2CCc3[nH]c4c(F)cccc4c3C2)CC1 | 3.03
7 | CC(=O)N1CCN(CCOc2ccc(C3(O)CCN(c4ccc5nnc(C(F)(F)F)n5n4)CC3)cc2)CC1 | 2.2
8 | N#CC1(NC(=O)[C@@H]2CCCC[C@H]2C(=O)N2CCc3[nH]c4c(C(F)(F)F)cccc4c3C2)CC1 | 3.75
9 | N#CC1(NC(=O)[C@@H]2CCCC[C@H]2C(=O)N2CCN(c3nc4ccncc4s3)CC2)CC1 | 1.6
10 | CS(=O)(=O)c1ccc2nc(N3CCN(C(=O)[C@@H]4CCCC[C@H]4C(=O)NC4(C#N)CC4)CC3)sc2c1 | 1.49
11 | COc1ccc(N2CCN(C(=O)[C@@H]3CCCC[C@H]3C(=O)NC3(C#N)CC3)CC2)cc1 | 1.74
12 | CCCSc1ncccc1C(=O)NC1[C@@H]2CC3C[C@H]1CC(O)(C3)C2 (some centres undefined) | 2.27
13 | Fc1ccc(CN2CCN(C3=Nn4c(nnc4C(F)(F)F)CC3)CC2)cc1 | 2.8
14 | N#CC1(NC(=O)[C@@H]2CCCC[C@H]2C(=O)N2CCc3[nH]c4c(OC(F)(F)F)cccc4c3C2)CC1 | 4.01
15 | C[C@@H]1CN(c2nc(C(F)(F)F)no2)CCN1c1ncc(OCc2ccncc2C#N)cn1 | 3.1
16 | C[C@H]1O[C@@H](n2cnc3c(N)nc(OC4CCCC4)nc32)[C@H](O)[C@H]1Cl | 3.18

Results, then the compound that gave them:

Row | logD | Structure (SMILES)
17 | 2.77 | CCS(=O)(=O)c1ccc(-c2cc(C(F)(F)F)ccc2OCC(N)=O)c(C)c1
18 | 1.13 | CCn1c(=O)c2c(O)cc(=O)oc2c2ccccc21
19 | 1.9 | CC(C)(C)c1cc2nc3c(c(=O)n2[nH]1)CN(Cc1ccccc1)C3=O
20 | 3.5 | C[C@H]1CN(C(=O)OC(C)(C)C)CCN1c1ncc(OCc2ccc(S(C)(=O)=O)cc2)cn1
21 | 1.6 | COc1ccc(N2CCN(C(=O)[C@@H]3CCCC[C@H]3C(=O)NCC#N)CC2)cc1
22 | 3 | COc1cc(N2CC3COCC(C2)N3)ccc1Nc1ncc(Cl)c(-c2cnc3ccccn23)n1
23 | 0.67 | CS(=O)(=O)c1ccc(N2CCN(C(=O)[C@@H]3CCCC[C@H]3C(=O)NCC#N)CC2)cc1
24 | 2.49 | COc1cc(OC)c(S(=O)(=O)N2c3ccccc3CCC2C)cc1NC(=O)Cc1ccnc(F)c1 (centres undefined)
25 | 2.3 | COc1ccc(N2CCN(C(=O)[C@@H]3CCCC[C@H]3C(=O)NC3(C#N)CC3)[C@H](C)C2)nc1OC
26 | 3.1 | C[C@H](C#N)NC(=O)[C@@H]1CCCC[C@H]1C(=O)N1CCc2[nH]c3ccc(F)cc3c2C1
27 | 2.4 | COc1ccc2[nH]c3c(c2c1)CN(C(=O)[C@@H]1CCCC[C@H]1C(=O)NC1(C#N)CC1)CC3
28 | 3.7 | Cc1cc(COc2cnc(N3CCN(C(=O)OC(C)(C)C)CC3)nc2)ccn1
29 | 2.06 | CS(=O)(=O)Cc1cc(N2CCOCC2)nc(-c2ccc3[nH]ccc3c2)n1
30 | 2.8 | CC(C)(C)OC(=O)N1CCC(c2ncc(OCc3ccc(S(C)(=O)=O)cc3)cn2)CC1
31 | 1.97 | O=c1cc(O)c2c(=O)n(Cc3ccccc3)c3ccccc3c2o1
32 | 2.36 | COc1ccc(N(C(=O)c2ccoc2Cl)C(C(=O)NC[C@@H](C)O)c2ccccc2F)c(OC)c1 (some centres undefined)
33 | 3.4 | C[C@@H]1CN(c2ncc(F)cn2)CCN1c1ncc(OCc2ccncc2C#N)cn1
34 | 2.35 | C[C@@H]1CN(c2ccccc2)CCN1C(=O)[C@@H]1CCCC[C@H]1C(=O)NC1(C#N)CC1
35 | 2.52 | Cc1ncc(-c2ccnc(Nc3ccc(N4CCN(S(=O)(=O)CCN(C)C)CC4)cc3)n2)n1C(C)C
36 | 3.37 | COc1cc(OC)c(S(=O)(=O)N2c3ccccc3Oc3ccccc32)cc1NC(=O)Cc1ccnc(F)c1
37 | 2.7 | NS(=O)(=O)c1ccc(Nc2nccc(-c3cnc4ccccn34)n2)cc1
38 | 2.7 | Cc1nn(C)c2cc(N3CCN(C(=O)[C@@H]4CCCC[C@H]4C(=O)NC4(C#N)CC4)[C@H](C)C3)ccc12
39 | 2.62 | CCNC(=O)c1cc2c(-n3ccc(C(F)(F)F)n3)c(-c3cncc(C#N)c3)cnc2[nH]1
